Test system: HBV
Test: Photodynamic inactivation of HBV in plasma by methylene blue solution under monochromatic light; HBV DNA in lymphocytes by PCR
Assay type: cell-based, human
Conditions: for amount of HBV DNA particles in lymphocytes, computed by PCR: HBV containing plasma, 90 minutes
Procedure: Medical instruments are placed in the cuvette 5 within the aforementioned aqueous solution of methylene blue 6, and the aforementioned door closed. The medical devices in the chamber 4 are then subjected to irradiation by emitters 7 of light energy, such as monochromatic radiation with a maximum specific content of monochromatic light with a wavelength of 590 nm or 660 nm, with a total light output of not less than 280 lm. The exposure time may be set to 90 minutes, e.g., using the aforesaid timer 9. After treatment, in the device 1, the viruses remaining on the medical instruments are completely inactivated, i.e., the viruses lose their ability to infect cells of the human body. Instruments so sterilized are then reliably reused without risk of infecting patients.
Verification steps of the employment of the claimed apparatuses and methods within an installation and carried out on in a biological environment contaminated by viruses, such as blood plasma.
Monochromatic radiation emitters 7 with a range of 590±2 nm are employed. After treatment in the inventive installation method, i.e., within device 1, samples of HBV containing plasma were treated for 90 minutes in a 0.01% solution of methylene blue, and afterward the amount of lymphocytes, computed by Polymerase Chain Reaction (PCR), of HBV DNA particles was zero, i.e., they were not found.
Monochromatic radiation emitters 7 with a range of 590±2 nm are employed. After treatment in the device 1, samples of HBV containing plasma were treated for 90 minutes in a 0.02% solution of methylene blue. As above, the amount of lymphocytes, computed by PCR, of HBV DNA particles were not found.
Monochromatic radiation emitters 7 with a range of 660±2 nm were employed. After treatment in the device 1, as set forth hereinabove, samples of HBV containing plasma were treated for 90 minutes in a 0.01% solution of methylene blue.
Monochromatic radiation emitters 7 with a range of 660±2 nm were employed.

With `CN(C)c1ccc2nc3ccc(=[N+](C)C)cc-3sc2c1` [methylene blue] the HBV inactivation (0.01% methylene blue solution, emitter range 588-592 nm) was “full effect”, the HBV inactivation (0.01% methylene blue solution, emitter range 658-662 nm) was “full sterilization treatment effect was reached” and the HBV inactivation (0.02% methylene blue solution, emitter range 588-592 nm) was “full effect”. For the same compound, the HBV inactivation (0.02% methylene blue solution, emitter range 658-662 nm) was “full effect”, the “amount of HBV DNA particles in lymphocytes, computed by PCR” value (“amount of HBV DNA particles” below) (0.01% solution of methylene blue, emitters 590±2 nm) was “zero” and the “amount of HBV DNA particles” value (0.01% solution of methylene blue, emitters 660±2 nm) was “found no HBV DNA particles”. For the same compound, the “amount of HBV DNA particles” value (0.02% solution of methylene blue, emitters 590±2 nm) was “not found” and the “amount of HBV DNA particles” value (0.02% solution of methylene blue, emitters 660±2 nm) was “no lymphocytes, computed by PCR, of the HBV DNA particles were found”.
